{
  "source": "patent US11174271B2",
  "about": "“6-membered uracil isosteres” (CV6 Therapeutics (NI) Limited, priority 2016, dated 2021)",
  "key": {"[1]": {"molecular_target": "T1, recombinant human deoxyuridine nucleotidohydrolase (dUTPase) (Homo sapiens, UniProt P33316)", "T1 construct": "made in house", "T1 sequence (P33316 1-164 isoform P33316-2)": "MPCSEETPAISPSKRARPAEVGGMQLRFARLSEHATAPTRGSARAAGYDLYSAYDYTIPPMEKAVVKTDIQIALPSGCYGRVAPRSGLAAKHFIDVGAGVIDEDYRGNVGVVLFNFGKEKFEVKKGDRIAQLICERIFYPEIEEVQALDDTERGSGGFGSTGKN", "experiment": "fluorescence-based dUTPase inhibition assay (DNA polymerase-based dUTP detection)", "format": "biochemical", "conditions": "mean across three concentrations, typically 100, 50 and 25 μmol/L, compared to the in-run positive control", "from_the_text": "Recombinant human deoxyuridine nucleotidohydrolase (dUTPase) is expressed and purified as described in Ladner R D, Carr S A, Huddleston M J, McNulty D E, Caradonna S J. J Biol Chem. 1996 Mar. 29; 271(13):7752-7. All drugs stocks are aliquoted and diluted as appropriate prior to use. The oligonucelotide primer, templates and fluorophore- and quencher-labeled detection probes are synthesized by Integrated DNA Technologies (Coralville, Iowa), subjected to polyacrylamide gel electrophoresis purification and reconstituted in Omnipur sterile nuclease-free water (EMD Chemicals USA, Gibbstown N.J.) at a stock concentration of 100 μmol/L. The two non-emissive (dark) quenching molecules incorporated into the detection probes include the Iowa black fluorescein quencher (IBFQ; absorption max 531 nm) and ZEN (non-abbreviation; absorption max 532 nm). The fluorescent label utilized is 6-FAM (5′-carboxyfluorescein; excitation max.=494 nm, emission max.=520 nm). Probes are further diluted to a working stock of 10 μmol/L and aliquoted to avoid repeated freeze/thaw cycles. AmpliTaq Gold DNA Polymerase, GeneAmp 10×PCR Buffer 2, MgCl2 and MicroAmp Optical 96-well Reaction Plates are purchased from Applied Biosystems (Carlsbad, Calif.). dNTPs are purchased individually at stock concentrations of 100 mmol/L from New England Biolabs at HPLC-certified >99% purity (Ipswich, Mass.).\nReaction mixtures contained primer, probe and template at an equimolar final concentration of 0.4 μmol/L. Magnesium chloride (MgCl2) is included at a final concentration of 2 mmol/L. Non-limiting dNTPs are included in the reaction mix in excess at a final concentration of 100 μmol/L (dUTP/dTTP is excluded). AmpliTaq Gold DNA polymerase is added at 0.875 U/reaction, 2.5 μl of 10×PCR buffer 2 added and nuclease-free ddH2O added to a final reaction volume of 25 μl. For dUTP inhibition analysis, the volume of ddH2O is further modified to accommodate an additional 1 μl of dUTPase (10 ng/μl) and 1 μl of inhibitor or DMSO control. Thermal profiling and fluorescence detection is performed using a customized thermal program on board a Roche Lightcycler LC480 Instrument II. For analysis of dNTPs, the thermal profile consisted of an 8 min 37° C. step followed by a 10 min 95° C. step to ‘hot-start’ the Taq polymerase and a primer extension time of up to 30 min at 60° C. Raw fluorescence spectra for 6-FAM is measured at specified time intervals to follow assay progression on board a Roche LightCycler 480 Software Version 1.5 and exported and analyzed in Microsoft Excel (Microsoft, Redmond Wash.) and Prism (GraphPad Software, La Jolla Calif.). Fluorescence values for blank reactions (limiting dNTP omitted) are subtracted to give normalized fluorescence units (NFU) to account for background fluorescence.\nTest compounds were screened in a fluorescence-based assay. The assay employed a DNA polymerase-based approach utilizing an oligonucleotide template with 3 distinct regions: a 3′ primer binding region, a mid-template dUTP/thymidine triphosphate (TTP) detection region and a 5′ 6-[…] (FAM)-labeled probe binding region that incorporates a black hole quenching moiety. During the reaction, the probe and primer hybridize to the oligonucleotide template to form the template:primer:probe complex. When Taq polymerase binds to the primer in the TPP complex and dUTP is present, successful extension of the nascent strand occurs and the inherent 5′ to 3′ exonuclease activity of Taq polymerase cleaves and displaces the 6-FAM-labeled probe in a 5′ to 3′ direction, releasing the 6-FAM fluorophore from its proximity to the […]. This displacement effectively disrupts the Förster resonance energy transfer (FRET) and the resulting fluorescence detected upon excitation is directly proportional to the amount of the dUTP available in the assay for incorporation. […]"}, "[2]": {"test_system": "colorectal (HCT116 and SW620) cell line models", "experiment": "MTS growth inhibition assay", "format": "cell-based", "conditions": "increasing concentrations of 5-FU between 0 and 100 μmol/L; both colorectal cancer cell lines", "method": "The Cell Titer AQueous MTS assay (Promega) is carried out according to the manufacturers guidelines. […] The combination effect is determined by the combination index (CI) method utilizing Calcusyn software (Biosoft, Ferguson, Mo.). Fraction affected (FA) is calculated from the percent growth inhibition: FA=[…]. CI values <1, synergism; 1-1.2, additive and >1.2, antagonism.\nTest compounds are evaluated for their antitumor activity in colorectal cancer cells using the MTS growth inhibition assay. HCT116 and SW620 cells are exposed to increasing concentrations of each agent for 72 hours and growth inhibition is directly compared to vehicle-treated controls. The NSCLC cell lines A549 and H1299 are exposed to increasing concentrations of each agent for 72 hours and growth inhibition is directly compared to vehicle-treated controls.\nMTS growth inhibition assays are performed to evaluate the effectiveness of the test compounds alone and in combination with the fluoropyrimidine thymidylate synthase (TS) inhibitor 5-fluorouracil (5-FU) at inhibiting the growth of colorectal (HCT116 and SW620) cell line models. […] Simultaneous treatment with increasing concentrations of 5-FU and a test compound at fixed concentrations of 25 μmol/L is determined."}, "[3]": {"test_system": "colorectal (HCT116), breast (MCF-7) and non-small cell lung (H1299, A549, H358 and H460) cell line models", "experiment": "Colony forming assay", "format": "cell-based", "conditions": "increasing concentrations of FUdR between 0.5 and 2.5 μmol/L; all cell lines evaluated", "method": "Colony forming assay showing the ability of colon (SW620, HCT116), non-small cell lung (A549, H460, H1299 and H358) and breast (MCF7) cancer cells to survive and proliferate following transient 24 hour exposure to test compounds, FUdR and combinations are determined. Specifically, cells are seeded at densities between 50 and 100 cells/well in 24-well plates. […] After 24 hours, drug is removed, cells are rinsed and allowed to outgrow for 10-14 days. At the conclusion of the outgrowth, cells are fixed in 60% ice cold methanol and stained with 0.1% crystal violet, scanned and counted. Data is presented as percentage of untreated controls (mean±SD). Fraction affected and combination indexes are calculated according to the method of Chou and Talalay where <1 is indicative of a synergistic drug interaction.\nColony forming assays are performed to evaluate the effectiveness of test compounds alone and in combination with the fluoropyrimidine thymidylate synthase (TS) inhibitor fluorodeoxyuridine (FUdR) at reducing cancer cell viability in colorectal (HCT116), breast (MCF-7) and non-small cell lung (H1299, A549, H358 and H460) cell line models. […] In colorectal cancer cells, concentrations of test compounds ranging e.g., from 3.1 μmol/L to 50 μmol/L are combined with 0.5 μmol/L FUdR in HCT116 cells and 1 μmol/L FUdR in SW620 cells."}, "[4]": {"molecular_target": "T1, recombinant human deoxyuridine nucleotidohydrolase (dUTPase)", "experiment": "fluorescence-based dUTPase inhibition assay (DNA polymerase-based dUTP detection)", "format": "biochemical", "conditions": "5 ng recombinant dUTPase, 50 pmols dUTP, 37° C. for 8 mins"}},
  "data": [
    {"compound": "CC[C@@](O)(CNS(=O)(=O)CCCCC1CCC(=O)NC1=O)c1ccc(F)c(OCC2CC2)c1", "note": "(stereo partly drawn) [Example 90, N—((S)-2-(3-(cyclopropylmethoxy)-4-fluorophenyl)-2-hydroxybutyl)-4-(2,6-dioxopiperidin-3-yl)butane-1-sulfonamide]", "values": [
      {"measurement": "% relative inhibition vs. positive control", "setting": "[1]", "result": 82, "unit": "%"}
    ]},
    {"compound": "CC(C)(NS(=O)(=O)C/C=C/CCC1CCC(=O)NC1=O)c1ccc(F)c(OCC2CC2)c1", "note": "(centres unmarked) [Example 87, (E)-N-(2-(3-(cyclopropylmethoxy)-4-fluorophenyl)propan-2-yl)-5-(2,6-dioxopiperidin-3-yl)pent-2-ene-1-sulfonamide]", "values": [
      {"measurement": "% relative inhibition vs. positive control", "setting": "[1]", "result": 26, "unit": "%"}
    ]},
    {"compound": "O=c1[nH]cc(F)c(=O)[nH]1", "note": "[Example 5-FU, 5-fluorouracil]", "values": [
      {"measurement": "growth inhibition", "setting": "[2]", "result": "dose-dependent increases in growth inhibition"}
    ]},
    {"compound": "O=c1[nH]c(=O)n([C@H]2C[C@H](O)[C@@H](CO)O2)cc1F", "note": "[FUdR, fluorodeoxyuridine]", "values": [
      {"measurement": "colonies formed", "setting": "[3]", "result": "dose-dependent decreases in colonies formed"}
    ]},
    {"compound": "CC[C@@H](NS(=O)(=O)CCCCCC1CCC(=O)NC1=O)c1ccc(F)c(OCC2CC2)c1", "note": "(stereo partly drawn) [Example 91, N—((R)-1-(3-(cyclopropylmethoxy)-4-fluorophenyl)propyl)-5-(2,6-dioxopiperidin-3-yl)pentane-1-sulfonamide]", "values": [
      {"measurement": "% relative inhibition vs. positive control", "setting": "[1]", "result": 10, "unit": "%"}
    ]},
    {"compound": "C[C@@H](NS(=O)(=O)CCCOCN1CCC(=O)NC1=O)c1cccc(OC2CCCC2)c1", "note": "[Example 93, (R)—N-(1-(3-(cyclopentyloxy)phenyl)ethyl)-3-((2,4-dioxotetrahydropyrimidin-1(2H)-yl)methoxy)propane-1-sulfonamide]", "values": [
      {"measurement": "IC50", "setting": "[4]", "result": 500, "unit": "nM"},
      {"measurement": "% relative inhibition vs. positive control", "setting": "[1]", "result": 149, "unit": "%"}
    ]},
    {"compound": "CC(C)(NS(=O)(=O)CCC/C=C/CC1CCC(=O)NC1=O)c1ccc(F)c(OCC2CC2)c1", "note": "(centres unmarked) [Example 83, (E)-N-(2-(3-(cyclopropylmethoxy)-4-fluorophenyl)propan-2-yl)-6-(2,6-dioxopiperidin-3-yl)hex-4-ene-1-sulfonamide]", "values": [
      {"measurement": "% relative inhibition vs. positive control", "setting": "[1]", "result": 45, "unit": "%"}
    ]},
    {"compound": "CC[C@@](O)(CNS(=O)(=O)C/C=C/CC1CCC(=O)NC1=O)c1ccc(F)c(OCC2CC2)c1", "note": "(stereo partly drawn) [Example 89, (E)-N—((S)-2-(3-(cyclopropylmethoxy)-4-fluorophenyl)-2-hydroxybutyl)-4-(2,6-dioxopiperidin-3-yl)but-2-ene-1-sulfonamide]", "values": [
      {"measurement": "% relative inhibition vs. positive control", "setting": "[1]", "result": 65, "unit": "%"}
    ]},
    {"compound": "CC(C)(NS(=O)(=O)CC/C=C/CC1CCC(=O)NC1=O)c1ccc(F)c(OCC2CC2)c1", "note": "(single isomer, unassigned) [Example 79 trans isomer 2, (E)-N-(2-(3-(cyclopropylmethoxy)-4-fluorophenyl)propan-2-yl)-5-(2,6-dioxopiperidin-3-yl)pent-3-ene-1-sulfonamide]", "values": [
      {"measurement": "% relative inhibition vs. positive control", "setting": "[1]; listed as 79 trans isomer 2", "result": 51, "unit": "%"}
    ]},
    {"compound": "CC(C)(NS(=O)(=O)CCCCCNC1CCC(=O)NC1=O)c1ccc(F)c(OCC2CC2)c1", "note": "(centres unmarked) [Example 85, N-(2-(3-(cyclopropylmethoxy)-4-fluorophenyl)propan-2-yl)-5-((2,6-dioxopiperidin-3-yl)amino)pentane-1-sulfonamide]", "values": [
      {"measurement": "% relative inhibition vs. positive control", "setting": "[1]", "result": 11, "unit": "%"}
    ]}
  ]
}
